Results from patent publication US20250212879A1, “HERBICIDAL COMPOUNDS” (SYNGENTA CROP PROTECTION AG, priority 2022, published 2025).

Tests used:
Type in all cases: in vivo
Details in all cases: 250 g/ha, evaluated after 13 days, 100=total damage to plant, 0=no damage to plant
[1] = system: Ipomoea hederacea (IPOHE); assay: Post-emergence biological efficacy, IPOHE
Experimental: (§1) Seeds of weeds and/or crops were sown in standard soil in pots (Amaranthus palmeri (AMAPA), (CHEAL), Euphorbia heterophylla (EPHHL), Ipomoea hederacea (IPOHE), Eleusine indica (ELEIN), Lolium perenne (LOLPE), Digitaria sanguinalis (DIGSA), Setaria faberi (SETFA), Echinochloa crus-galli (ECHCG)). After cultivation for 14 days under controlled conditions in a glasshouse (at 24/19° C., day/night; 16 hours light), the plants were sprayed with an aqueous spray solution derived from the formulation of the technical active ingredient in a small amount of acetone and a special solvent and emulsifier mixture referred to as IF50 (11.12% Emulsogen EL360 TM+44.44% N-methylpyrrolidone+44.44% Dowanol DPM glycol ether), to create a 50 g/l solution which was then diluted using 0.2% Genapol XO80 as diluent to give the desired final dose of test compound. Compounds were applied at a 250 g/ha unless otherwise stated. The test plants were then grown under controlled conditions in the glasshouse (at 24/18° C., day/night; 15 hours light; 50% humidity) and watered twice daily. After 13 days the test was evaluated (100=total damage to plant; 0=no damage to plant).

[2] = system: Setaria faberi (SETFA); assay: Pre-emergence biological efficacy, SETFA
Experimental: as §1, with “Lolium perenne (LOLPE),” for “(CHEAL),”, “(EPHHL),” for “(EPHHL), Ipomoea hederacea (IPOHE), Eleusine indica (ELEIN), Lolium perenne (LOLPE), Digitaria sanguinalis (DIGSA),”, “(ECHCG), Ipomoea hederacea (IPOHE)).” for “(ECHCG)).”, “one day” for “14 days”, “X080” for “XO80”

[3] = system: Euphorbia heterophylla (EPHHL); assay: Pre-emergence biological efficacy, EPHHL
Experimental: as §1, with “Lolium perenne (LOLPE),” for “(CHEAL),”, “(EPHHL),” for “(EPHHL), Ipomoea hederacea (IPOHE), Eleusine indica (ELEIN), Lolium perenne (LOLPE), Digitaria sanguinalis (DIGSA),”, “(ECHCG), Ipomoea hederacea (IPOHE)).” for “(ECHCG)).”, “one day” for “14 days”, “X080” for “XO80”

[4] = system: Ipomoea hederacea (IPOHE); assay: Pre-emergence biological efficacy, IPOHE
Experimental: as §1, with “Lolium perenne (LOLPE),” for “(CHEAL),”, “(EPHHL),” for “(EPHHL), Ipomoea hederacea (IPOHE), Eleusine indica (ELEIN), Lolium perenne (LOLPE), Digitaria sanguinalis (DIGSA),”, “(ECHCG), Ipomoea hederacea (IPOHE)).” for “(ECHCG)).”, “one day” for “14 days”, “X080” for “XO80”

[5] = system: CHEAL; assay: Post-emergence biological efficacy, CHEAL
Experimental: as §1

[6] = system: Amaranthus palmeri (AMAPA); assay: Pre-emergence biological efficacy, AMAPA
Experimental: as §1, with “Lolium perenne (LOLPE),” for “(CHEAL),”, “(EPHHL),” for “(EPHHL), Ipomoea hederacea (IPOHE), Eleusine indica (ELEIN), Lolium perenne (LOLPE), Digitaria sanguinalis (DIGSA),”, “(ECHCG), Ipomoea hederacea (IPOHE)).” for “(ECHCG)).”, “one day” for “14 days”, “X080” for “XO80”

[7] = system: Setaria faberi (SETFA); assay: Post-emergence biological efficacy, SETFA
Experimental: as §1

[8] = system: Euphorbia heterophylla (EPHHL); assay: Post-emergence biological efficacy, EPHHL
Experimental: as §1

[9] = system: Digitaria sanguinalis (DIGSA); assay: Post-emergence biological efficacy, DIGSA
Experimental: as §1

[10] = system: Echinochloa crus-galli (ECHCG); assay: Post-emergence biological efficacy, ECHCG
Experimental: as §1

[11] = system: Amaranthus palmeri (AMAPA); assay: Post-emergence biological efficacy, AMAPA
Experimental: as §1

[12] = system: Lolium perenne (LOLPE); assay: Pre-emergence biological efficacy, LOLPE
Experimental: as §1, with “Lolium perenne (LOLPE),” for “(CHEAL),”, “(EPHHL),” for “(EPHHL), Ipomoea hederacea (IPOHE), Eleusine indica (ELEIN), Lolium perenne (LOLPE), Digitaria sanguinalis (DIGSA),”, “(ECHCG), Ipomoea hederacea (IPOHE)).” for “(ECHCG)).”, “one day” for “14 days”, “X080” for “XO80”

[13] = system: Echinochloa crus-galli (ECHCG); assay: Pre-emergence biological efficacy, ECHCG
Experimental: as §1, with “Lolium perenne (LOLPE),” for “(CHEAL),”, “(EPHHL),” for “(EPHHL), Ipomoea hederacea (IPOHE), Eleusine indica (ELEIN), Lolium perenne (LOLPE), Digitaria sanguinalis (DIGSA),”, “(ECHCG), Ipomoea hederacea (IPOHE)).” for “(ECHCG)).”, “one day” for “14 days”, “X080” for “XO80”

[14] = system: Lolium perenne (LOLPE); assay: Post-emergence biological efficacy, LOLPE
Experimental: as §1

[15] = system: Eleusine indica (ELEIN); assay: Post-emergence biological efficacy, ELEIN
Experimental: as §1

Structure (SMILES) | damage to plant, IPOHE [1] | damage to plant, SETFA [2] | damage to plant, EPHHL [3] | damage to plant, IPOHE [4] | damage to plant, CHEAL [5] | damage to plant, AMAPA [6] | damage to plant, SETFA [7] | damage to plant, EPHHL [8] | damage to plant, DIGSA [9] | damage to plant, ECHCG [10] | damage to plant, AMAPA [11] | damage to plant, LOLPE [12] | damage to plant, ECHCG [13] | damage to plant, LOLPE [14] | damage to plant, ELEIN [15]
CCOC(=O)C[C@H](C)OC(=O)c1cc(-c2ncc(C(F)(F)F)cc2Cl)ccc1Cl [Compound 1-525 (S-enantiomer), [(1S)-3-ethoxy-1-methyl-3-oxo-propyl] 2-chloro-5-[3-chloro-5-(trifluoromethyl)-2-pyridyl]-benzoate] | 90 | 100 | 100 | 70 | 100 | 100 | 100 | 100 | 100 | 100 | 100 | 100 | 100 | 100 | 100
CCOC(=O)CC(C)OC(=O)c1cc(-c2ncc(C(F)(F)F)cc2Cl)ccc1Cl (stereo not drawn) [Compound 1-525, (3-ethoxy-1-methyl-3-oxo-propyl) 2-chloro-5-[3-chloro-5-(trifluoromethyl)-2-pyridyl]benzoate] | 80 | 100 | 100 | 70 | 100 | 100 | 100 | 100 | 100 | 100 | 100 | 100 | 100 | 100 | 100
CCOC(=O)C[C@@H](C)OC(=O)c1cc(-c2ncc(C(F)(F)F)cc2Cl)c(F)cc1Cl [Compound 2-525 (R-enantiomer), [(1R)-3-ethoxy-1-methyl-3-oxo-propyl] 2-chloro-5-[3-chloro-5-(trifluoromethyl)-2-pyridyl]-4-fluoro-benzoate] | 100 | 100 | 100 | 60 | 100 | 100 | 100 | 100 | 100 | 100 | 100 | 100 | 100 | 100 | 100
CCOC(=O)C[C@H](C)OC(=O)c1cc(-c2ncc(C(F)(F)F)cc2Cl)c(F)cc1Cl [Compound 2-525 (S-enantiomer), [(1S)-3-ethoxy-1-methyl-3-oxo-propyl] 2-chloro-5-[3-chloro-5-(trifluoromethyl)-2-pyridyl]-4-fluoro-benzoate] | 100 | 100 | 100 | 100 | 100 | 100 | 100 | 100 | 100 | 100 | 100 | 100 | 100 | 100 | 100
COC(=O)C[C@H](C)OC(=O)c1nc(-c2ncc(C(F)(F)F)cc2Cl)c(F)cc1Cl [Compound 11-524 (S-enantiomer), [(1S)-3-methoxy-1-methyl-3-oxo-propyl] 3-chloro-6-[3-chloro-5-(trifluoromethyl)-2-pyridyl]-5-fluoro-pyridine-2-carboxylate] | 100 | 100 | 100 | 100 | 100 | 100 | 100 | 100 | 100 | 100 | 100 | 100 | 100 | 100 | 100
